Reference: patent US20250255867A1 (Kadmon Corporation, LLC, priority 2022, published 2025)

Protocol: All responses were assessed by the investigators.
Reported Adverse Events. […] All-cause mortality data collected during the study were assessed for all enrolled participants. Disease progression related death was not reported as AE.
Number of Participants With Treatment-emergent Adverse Events (TEAEs), and Treatment-emergent Serious Adverse Events (TESAEs). […] TEAEs included both SAEs and non-SAEs. […] Analysis was performed on safety population which included all participants who received at least 1 dose of study medication.

CC(C)NC(=O)COc1cccc(-c2nc(Nc3ccc4[nH]ncc4c3)c3ccccc3n2)c1 [Belumosudil, 2-{3-[4-(1H-indazol-5-ylamino)-2-quinazolinyl]phenoxy}-N-(propan-2-yl) acetamide]
Patients with relative dose intensity >95% (Cohort 1): 77% | Abdominal distension: # Events (Cohort 1 200 mg QD): 1 | Abdominal distension: Affected/At Risk (Cohort 1 200 mg QD): 1/17 | Abdominal distension: Affected/At Risk (%) (Cohort 1 200 mg QD): (5.88%) | Abdominal pain upper: # Events (Cohort 1 200 mg QD): 1 | Abdominal pain upper: Affected/At Risk (Cohort 1 200 mg QD): 1/17 | Abdominal pain upper: Affected/At Risk (%) (Cohort 1 200 mg QD): (5.88%) | Abdominal pain: # Events (Cohort 1 200 mg QD): 2 | Abdominal pain: Affected/At Risk (Cohort 1 200 mg QD): 2/17 | Abdominal pain: Affected/At Risk (%) (Cohort 1 200 mg QD): (11.76%) | Actinic keratosis: # Events (Cohort 1 200 mg QD): 0 | Actinic keratosis: Affected/At Risk (Cohort 1 200 mg QD): 0/17 | Actinic keratosis: Affected/At Risk (%) (Cohort 1 200 mg QD): (0%) | Acute kidney injury: # Events (Cohort 1 200 mg QD): 4 | Acute kidney injury: Affected/At Risk (Cohort 1 200 mg QD): 1/17 | Acute kidney injury: Affected/At Risk (%) (Cohort 1 200 mg QD): (5.88%) | Acute respiratory distress syndrome: # Events (Cohort 1 200 mg QD): 1 | Acute respiratory distress syndrome: Affected/At Risk (Cohort 1 200 mg QD): 1/17 | Acute respiratory distress syndrome: Affected/At Risk (%) (Cohort 1 200 mg QD): (5.88%) | Adrenal insufficiency: # Events (Cohort 1 200 mg QD): 2 | Adrenal insufficiency: Affected/At Risk (Cohort 1 200 mg QD): 1/17 | Adrenal insufficiency: Affected/At Risk (%) (Cohort 1 200 mg QD): (5.88%) | Alanine aminotransferase increased: # Events (Cohort 1 200 mg QD): 12 | Alanine aminotransferase increased: Affected/At Risk (Cohort 1 200 mg QD): 6/17 | Alanine aminotransferase increased: Affected/At Risk (%) (Cohort 1 200 mg QD): (35.29%) | Anaemia: # Events (Cohort 1 200 mg QD): 14 | Anaemia: Affected/At Risk (Cohort 1 200 mg QD): 5/17 | Anaemia: Affected/At Risk (%) (Cohort 1 200 mg QD): (29.41%) | Anal incontinence: # Events (Cohort 1 200 mg QD): 2 | Anal incontinence: Affected/At Risk (Cohort 1 200 mg QD): 1/17 | Anal incontinence: Affected/At Risk (%) (Cohort 1 200 mg QD): (5.88%) | Anxiety: # Events (Cohort 1 200 mg QD): 1 | Anxiety: Affected/At Risk (Cohort 1 200 mg QD): 1/17 | Anxiety: Affected/At Risk (%) (Cohort 1 200 mg QD): (5.88%) | Arthralgia: # Events (Cohort 1 200 mg QD): 1 | Arthralgia: Affected/At Risk (Cohort 1 200 mg QD): 1/17 | Arthralgia: Affected/At Risk (%) (Cohort 1 200 mg QD): (5.88%) | Aspartate aminotransferase increased: # Events (Cohort 1 200 mg QD): 8 | Aspartate aminotransferase increased: Affected/At Risk (Cohort 1 200 mg QD): 5/17 | Aspartate aminotransferase increased: Affected/At Risk (%) (Cohort 1 200 mg QD): (29.41%) | Asthenia: # Events (Cohort 1 200 mg QD): 0 | Asthenia: Affected/At Risk (Cohort 1 200 mg QD): 0/17 | Asthenia: Affected/At Risk (%) (Cohort 1 200 mg QD): (0%) | Atelectasis: # Events (Cohort 1 200 mg QD): 1 | Atelectasis: Affected/At Risk (Cohort 1 200 mg QD): 1/17 | Atelectasis: Affected/At Risk (%) (Cohort 1 200 mg QD): (5.88%) | Back pain: # Events (Cohort 1 200 mg QD): 0 | Back pain: Affected/At Risk (Cohort 1 200 mg QD): 0/17 | Back pain: Affected/At Risk (%) (Cohort 1 200 mg QD): (0%) | Balance disorder: # Events (Cohort 1 200 mg QD): 0 | Balance disorder: Affected/At Risk (Cohort 1 200 mg QD): 0/17 | Balance disorder: Affected/At Risk (%) (Cohort 1 200 mg QD): (0%) | Basal cell carcinoma: # Events (Cohort 1 200 mg QD): 0 | Basal cell carcinoma: Affected/At Risk (Cohort 1 200 mg QD): 0/17 | Basal cell carcinoma: Affected/At Risk (%) (Cohort 1 200 mg QD): (0%) | Benign prostatic hyperplasia: # Events (Cohort 1 200 mg QD): 1 | Benign prostatic hyperplasia: Affected/At Risk (Cohort 1 200 mg QD): 1/17 | Benign prostatic hyperplasia: Affected/At Risk (%) (Cohort 1 200 mg QD): (5.88%) | Blepharitis: # Events (Cohort 1 200 mg QD): 1 | Blepharitis: Affected/At Risk (Cohort 1 200 mg QD): 1/17 | Blepharitis: Affected/At Risk (%) (Cohort 1 200 mg QD): (5.88%) | Blister: # Events (Cohort 1 200 mg QD): 0 | Blister: Affected/At Risk (Cohort 1 200 mg QD): 0/17 | Blister: Affected/At Risk (%) (Cohort 1 200 mg QD): (0%) | Blood alkaline phosphatase increased: # Events (Cohort 1 200 mg QD): 6 | Blood alkaline phosphatase increased: Affected/At Risk (Cohort 1 200 mg QD): 4/17 | Blood alkaline phosphatase increased: Affected/At Risk (%) (Cohort 1 200 mg QD): (23.53%) | Blood chloride decreased: # Events (Cohort 1 200 mg QD): 0 | Blood chloride decreased: Affected/At Risk (Cohort 1 200 mg QD): 0/17 | Blood chloride decreased: Affected/At Risk (%) (Cohort 1 200 mg QD): (0%) | Blood cholesterol increased: # Events (Cohort 1 200 mg QD): 2 | Blood cholesterol increased: Affected/At Risk (Cohort 1 200 mg QD): 1/17 | Blood cholesterol increased: Affected/At Risk (%) (Cohort 1 200 mg QD): (5.88%) | Blood creatine increased: # Events (Cohort 1 200 mg QD): 0 | Blood creatine increased: Affected/At Risk (Cohort 1 200 mg QD): 0/17 | Blood creatine increased: Affected/At Risk (%) (Cohort 1 200 mg QD): (0%) | Blood creatine phosphokinase increased: # Events (Cohort 1 200 mg QD): 1 | Blood creatine phosphokinase increased: Affected/At Risk (Cohort 1 200 mg QD): 1/17 | Blood creatine phosphokinase increased: Affected/At Risk (%) (Cohort 1 200 mg QD): (5.88%) | Blood creatinine increased: # Events (Cohort 1 200 mg QD): 1 | Blood creatinine increased: Affected/At Risk (Cohort 1 200 mg QD): 1/17 | Blood creatinine increased: Affected/At Risk (%) (Cohort 1 200 mg QD): (5.88%) | Blood loss anaemia: # Events (Cohort 1 200 mg QD): 1 | Blood loss anaemia: Affected/At Risk (Cohort 1 200 mg QD): 1/17 | Blood loss anaemia: Affected/At Risk (%) (Cohort 1 200 mg QD): (5.88%) | Bronchial secretion retention: # Events (Cohort 1 200 mg QD): 0 | Bronchial secretion retention: Affected/At Risk (Cohort 1 200 mg QD): 0/17 | Bronchial secretion retention: Affected/At Risk (%) (Cohort 1 200 mg QD): (0%) | Bronchitis: # Events (Cohort 1 200 mg QD): 1 | Bronchitis: Affected/At Risk (Cohort 1 200 mg QD): 1/17 | Bronchitis: Affected/At Risk (%) (Cohort 1 200 mg QD): (5.88%) | Bronchoscopy: # Events (Cohort 1 200 mg QD): 1 | Bronchoscopy: Affected/At Risk (Cohort 1 200 mg QD): 1/17 | Bronchoscopy: Affected/At Risk (%) (Cohort 1 200 mg QD): (5.88%) | Catheter site haemorrhage: # Events (Cohort 1 200 mg QD): 1 | Catheter site haemorrhage: Affected/At Risk (Cohort 1 200 mg QD): 1/17 | Catheter site haemorrhage: Affected/At Risk (%) (Cohort 1 200 mg QD): (5.88%) | Chills: # Events (Cohort 1 200 mg QD): 1 | Chills: Affected/At Risk (Cohort 1 200 mg QD): 1/17 | Chills: Affected/At Risk (%) (Cohort 1 200 mg QD): (5.88%) | Chronic kidney disease: # Events (Cohort 1 200 mg QD): 1 | Chronic kidney disease: Affected/At Risk (Cohort 1 200 mg QD): 1/17 | Chronic kidney disease: Affected/At Risk (%) (Cohort 1 200 mg QD): (5.88%) | Conjunctival haemorrhage: # Events (Cohort 1 200 mg QD): 0 | Conjunctival haemorrhage: Affected/At Risk (Cohort 1 200 mg QD): 0/17 | Conjunctival haemorrhage: Affected/At Risk (%) (Cohort 1 200 mg QD): (0%) | Conjunctivitis: # Events (Cohort 1 200 mg QD): 0 | Conjunctivitis: Affected/At Risk (Cohort 1 200 mg QD): 0/17 | Conjunctivitis: Affected/At Risk (%) (Cohort 1 200 mg QD): (0%) | Constipation: # Events (Cohort 1 200 mg QD): 1 | Constipation: Affected/At Risk (Cohort 1 200 mg QD): 1/17 | Constipation: Affected/At Risk (%) (Cohort 1 200 mg QD): (5.88%) | Contrast media allergy: # Events (Cohort 1 200 mg QD): 0 | Contrast media allergy: Affected/At Risk (Cohort 1 200 mg QD): 0/17 | Contrast media allergy: Affected/At Risk (%) (Cohort 1 200 mg QD): (0%) | Contusion: # Events (Cohort 1 200 mg QD): 2 | Contusion: Affected/At Risk (Cohort 1 200 mg QD): 2/17 | Contusion: Affected/At Risk (%) (Cohort 1 200 mg QD): (11.76%) | Corneal abrasion: # Events (Cohort 1 200 mg QD): 1 | Corneal abrasion: Affected/At Risk (Cohort 1 200 mg QD): 1/17 | Corneal abrasion: Affected/At Risk (%) (Cohort 1 200 mg QD): (5.88%) | Corneal infection: # Events (Cohort 1 200 mg QD): 0 | Corneal infection: Affected/At Risk (Cohort 1 200 mg QD): 0/17 | Corneal infection: Affected/At Risk (%) (Cohort 1 200 mg QD): (0%) | Cough: # Events (Cohort 1 200 mg QD): 1 | Cough: Affected/At Risk (Cohort 1 200 mg QD): 1/17 | Cough: Affected/At Risk (%) (Cohort 1 200 mg QD): (5.88%) | Decreased appetite: # Events (Cohort 1 200 mg QD): 4 | Decreased appetite: Affected/At Risk (Cohort 1 200 mg QD): 2/17 | Decreased appetite: Affected/At Risk (%) (Cohort 1 200 mg QD): (11.76%) | Dehydration: # Events (Cohort 1 200 mg QD): 2 | Dehydration: Affected/At Risk (Cohort 1 200 mg QD): 2/17 | Dehydration: Affected/At Risk (%) (Cohort 1 200 mg QD): (11.76%) | Depression: # Events (Cohort 1 200 mg QD): 0 | Depression: Affected/At Risk (Cohort 1 200 mg QD): 0/17 | Depression: Affected/At Risk (%) (Cohort 1 200 mg QD): (0%) | Diarrhoea: # Events (Cohort 1 200 mg QD): 9
